Reference: PMC3566764, “Thioester derivatives of the natural product psammaplin A as potent histone deacetylase inhibitors” (Beilstein Journal of Organic Chemistry, 2013)
Read-outs that look alike come from different tables or passages of the source. Values belong to the compound of their own block, whether it stands above or below them.

Legend:
[1] = tested on: A549 (human lung carcinoma); assay: Cytotoxicity against A549 cell line; assay type: cell-based; details: for IC50: Homo sapiens, A549 cells
Method: (§1) Thioesters 7–9 were assayed against A549, MCF7 and WI38 cell lines, in addition to recombinant human rHDAC1 (class I) and recombinant human HDAC6 (rHDAC6, class II) as previously reported. Psammaplin A (3), prereduced psammaplin A thiol (4), and SAHA (1) were included as control compounds. IC50^6/1 is defined by the ratio IC50^HDAC6/IC50^HDAC1 and was used as an indicator of isoform selectivity in vitro.

[2] = tested on: MCF7 (human breast carcinoma); assay: Cytotoxicity against MCF7 cell line; assay type: cell-based; details: MCF7 cells
Method: as §1

[3] = tested on: WI38 (normal human lung fibroblast); assay: Cytotoxicity against WI38 cell line; assay type: cell-based; details: for IC50: Homo sapiens, WI-38, WI38 cells
Method: as §1

rHDAC1 [4] = molecular target: T1, rHDAC1 (Homo sapiens, UniProt Q13547); assay: rHDAC1 inhibition, coupled Boc-Lys(Ac)-AMC/trypsin fluorescence assay; assay type: biochemical; details: for IC50^6/1 (ratio IC50 HDAC6/IC50 HDAC1): isoform selectivity in vitro; for IC50: purified recombinant human HDAC1
T1 construct: purchased BPS Bioscience (US)
Method: (§2) HDAC assays were performed as previously reported. The recombinant human histone deacetylases rHDAC1 and rHDAC6 were obtained from BPS Bioscience (US).
(§3) All reactions were performed in black half area 96-well microplates (Greiner bio-one, Germany) according to the general procedure described by Wegener et al. with some minor modifications. […] The buffer components were purchased from Merck (Germany), Roth (Germany) and Sigma-Aldrich.
(§4) The enzyme reaction was initiated by the addition of Boc-Lys(Ac)-AMC substrate. The reaction mixture was incubated at 30 °C in the dark and stopped after 60 min by the addition of a mixture of 70 µM trypsin and 200 nM SAHA. The fluorescence of AMC served as an indirect measure of HDAC enzyme activity. The kinetics of AMC release was measured on a PolarStar fluorescence plate reader (BMG) with an excitation wavelength of 340 nm and an emission wavelength of 460 nm. Complete cleavage of deacetylated Boc-Lys-AMC by trypsin was achieved after about 10–15 min. The fluorescence intensity of the plateau was averaged over at least 5 min and normalized with respect to the percentage of enzyme activity. Finally, the normalized fluorescence intensities were plotted versus the concentration of test compounds and fitted to a four-parameter logistic model to calculate the IC50 values.

[5] = molecular target: T2, recombinant human HDAC6 (rHDAC6) (Homo sapiens, UniProt Q9UBN7); assay: rHDAC6 inhibition, coupled Boc-Lys(Ac)-AMC/trypsin fluorescence assay; assay type: biochemical; details: purified recombinant human HDAC6
T2 construct: purchased BPS Bioscience (US)
T2 sequence (Q9UBN7 1-1215): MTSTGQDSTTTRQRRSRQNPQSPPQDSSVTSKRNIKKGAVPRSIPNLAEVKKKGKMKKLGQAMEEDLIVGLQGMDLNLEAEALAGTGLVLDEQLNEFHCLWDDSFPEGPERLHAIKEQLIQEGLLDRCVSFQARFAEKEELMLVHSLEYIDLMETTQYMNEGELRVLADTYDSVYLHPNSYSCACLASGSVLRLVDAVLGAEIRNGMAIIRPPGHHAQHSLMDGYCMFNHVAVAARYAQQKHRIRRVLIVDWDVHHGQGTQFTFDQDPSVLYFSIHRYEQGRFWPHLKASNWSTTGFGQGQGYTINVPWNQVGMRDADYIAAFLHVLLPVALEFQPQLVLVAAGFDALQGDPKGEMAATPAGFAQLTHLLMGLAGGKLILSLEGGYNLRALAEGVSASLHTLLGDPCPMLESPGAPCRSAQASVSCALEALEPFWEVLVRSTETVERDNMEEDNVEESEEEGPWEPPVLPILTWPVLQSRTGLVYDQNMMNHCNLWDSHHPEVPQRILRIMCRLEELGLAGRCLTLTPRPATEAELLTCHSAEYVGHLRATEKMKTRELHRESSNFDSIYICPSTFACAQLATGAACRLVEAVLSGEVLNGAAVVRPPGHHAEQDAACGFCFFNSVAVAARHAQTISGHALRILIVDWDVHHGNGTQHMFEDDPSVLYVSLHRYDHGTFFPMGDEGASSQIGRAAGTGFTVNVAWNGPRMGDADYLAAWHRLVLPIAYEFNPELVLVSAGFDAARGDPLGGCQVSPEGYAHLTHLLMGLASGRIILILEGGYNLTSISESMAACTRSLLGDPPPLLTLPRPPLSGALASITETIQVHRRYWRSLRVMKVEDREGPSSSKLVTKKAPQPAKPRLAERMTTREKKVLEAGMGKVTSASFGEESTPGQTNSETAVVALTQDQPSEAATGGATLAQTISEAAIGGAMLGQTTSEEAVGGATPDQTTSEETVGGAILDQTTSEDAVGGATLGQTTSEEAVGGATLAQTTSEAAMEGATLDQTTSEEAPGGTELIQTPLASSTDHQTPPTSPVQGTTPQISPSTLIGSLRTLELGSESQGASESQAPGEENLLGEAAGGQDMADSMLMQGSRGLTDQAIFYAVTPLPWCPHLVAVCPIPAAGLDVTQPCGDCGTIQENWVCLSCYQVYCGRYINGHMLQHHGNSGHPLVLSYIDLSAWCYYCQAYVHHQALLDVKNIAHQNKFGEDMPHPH
Method: as §2, §3, §4

rHDAC1 [6] = molecular target: T1, rHDAC1; assay: rHDAC1 inhibition as a function of initial incubation time; assay type: biochemical; details: thioester at IC50 concentration, incubation 1–60 minutes
Method: An alternative hypothesis for the high potency of the thioester inhibitors is that the HDAC enzyme cleaves the acetyl group directly, utilizing its intrinsic deacetylase activity. Inhibition of rHDAC1 was measured (at the IC50 concentration of thioester) as a function of the initial incubation time (1–60 minutes) of rHDAC1 with thioesters 7 and 9 (Figure 2). […] Finally, we assessed whether the use of thioester inhibitors could influence the assay readout, when using our coupled HDAC assay. Trypsin-dependant generation of the fluorescence intensity (2nd step of our coupled assay) was discounted as a source of false-positive activity, since trypsin was used in a large excess (430 μM) compared to the thioesters (low micromolar to nanomolar). Direct compound inhibition of trypsin would therefore not be significant in the overall readout on stoichiometry grounds.
Figure 2 rHDAC1 was incubated with a predetermined IC50 concentration of 7 (left) and 9 (right) for 1–60 minutes, and the remaining rHDAC1 activity (Y-axis, %) was recorded and plotted as a function of the incubation time (X-axis, minutes).
A serial dilution of test compounds was pre-incubated with 7.4 nM rHDAC1 or 2.8 nM rHDAC6, at 21 ± 1 °C in the dark for different periods of time as indicated. […] The fluorescence of AMC served as an indirect measure of HDAC enzyme activity. […]

[7] = tested on: A549 (human lung carcinoma); design: method as in PMID 22280363; details: in brackets, cited from earlier work
[8] = tested on: MCF7 (human breast carcinoma); design: method as in PMID 22280363; details: in brackets, cited from earlier work
rHDAC1 [9] = molecular target: T1, rHDAC1; design: method as in PMID 22280363; details: in brackets, cited from earlier work
[10] = molecular target: T2, recombinant human HDAC6 (rHDAC6); design: method as in PMID 22280363; details: in brackets, cited from earlier work
[11] = tested on: WI38 (normal human lung fibroblast); design: method as in PMID 22280363; details: in brackets, cited from earlier work
[12] = first value: corresponding disulfide
[13] = second value: corresponding thiol

T1 sequence (Q13547 whole entry, canonical isoform): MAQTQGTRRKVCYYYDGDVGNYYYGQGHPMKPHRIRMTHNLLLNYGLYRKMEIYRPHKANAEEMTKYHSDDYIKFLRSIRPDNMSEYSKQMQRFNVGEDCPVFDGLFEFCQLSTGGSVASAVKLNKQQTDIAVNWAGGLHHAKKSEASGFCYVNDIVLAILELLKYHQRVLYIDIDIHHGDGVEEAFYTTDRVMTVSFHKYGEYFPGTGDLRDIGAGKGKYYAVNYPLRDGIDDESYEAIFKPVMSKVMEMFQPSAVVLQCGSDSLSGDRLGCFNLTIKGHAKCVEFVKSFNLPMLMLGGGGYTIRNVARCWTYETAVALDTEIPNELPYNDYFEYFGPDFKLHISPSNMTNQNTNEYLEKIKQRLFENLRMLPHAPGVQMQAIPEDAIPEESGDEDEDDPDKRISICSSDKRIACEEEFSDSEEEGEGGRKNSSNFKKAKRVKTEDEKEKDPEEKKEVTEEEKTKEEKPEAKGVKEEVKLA

- IC50^6/1 (ratio IC50 HDAC6/IC50 HDAC1) (rHDAC1 [4]): > 417
- IC50 (rHDAC1 [4]): 0.12 µM
- times less potent than the corresponding free thiol analogue against rHDAC1 (rHDAC1 [4]; thioester vs free thiol): 8 times
- IC50 [5]: > 50 µM
- variation of rHDAC1 inhibition with initial incubation time (rHDAC1 [6]): No variation of enzymatic inhibition
SMILES: CO/N=C(\Cc1ccc(OC)c(Br)c1)C(=O)NCCSC(C)=O [Compound 7, (E)-(S)-2-(3-(3-Bromo-4-methoxyphenyl)-2-(methoxyimino)propanamido)ethyl ethanethioate]
- IC50 [1]: 44 µM
- IC50 [2]: 12 µM
- IC50 [3]: 17 µM

- IC50^6/1 (ratio IC50 HDAC6/IC50 HDAC1) (rHDAC1 [4]): > 20
- IC50 (rHDAC1 [4]): 0.48 µM
- IC50 [5]: 9.5 µM
- variation of rHDAC1 inhibition with initial incubation time (rHDAC1 [6]): No variation of enzymatic inhibition
SMILES: COc1ccc(CC(=O)C(=O)NCCSC(C)=O)cc1Br [Compound 9, (S)-2-(3-(3-Bromo-4-methoxyphenyl)-2-oxopropanamido)ethyl ethanethioate]
- activity against A549 cells at the highest concentration tested ([1]; 50 μM): inactive
- IC50 [1]: > 50 µM
- IC50 [2]: 21 µM
- activity against WI38 cells at the highest concentration tested ([3]; 50 μM): inactive
- IC50 [3]: > 50 µM

- IC50^6/1 (ratio IC50 HDAC6/IC50 HDAC1) (rHDAC1 [4]): 62
- IC50 (rHDAC1 [4]): 0.045 µM
- IC50 [5]: 2.8 µM
SMILES: O=C(NCCSSCCNC(=O)/C(Cc1ccc(O)c(Br)c1)=N/O)/C(Cc1ccc(O)c(Br)c1)=N/O [PSA (3), psammaplin A]
- IC50 [1]: 7.5 µM
- IC50 [2]: 1.3 µM
- IC50 [3]: 3.4 µM

- IC50^6/1 (ratio IC50 HDAC6/IC50 HDAC1) (rHDAC1 [4]): 360
- IC50 (rHDAC1 [4]): 0.001 µM
- IC50 [5]: 0.36 µM
SMILES: O=C(NCCS)/C(Cc1ccc(O)c(Br)c1)=N/O [PSA-SH (4)]
- IC50 [1]: 2.5 µM
- IC50 [2]: 2.4 µM
- IC50 [3]: 3.4 µM

SMILES: O=C(CCCCCCC(=O)Nc1ccccc1)NO [SAHA (1), suberoylanilide hydroxamic acid]
- IC50^6/1 (ratio IC50 HDAC6/IC50 HDAC1) (rHDAC1 [4]): 7

SMILES: CON=C(Cc1ccc(OC)c(Br)c1)C(=O)NCCSSCCNC(=O)C(Cc1ccc(OC)c(Br)c1)=NOC [disulfide of 7]
- IC50 [7, 12]: 46 µM
- IC50 [8, 12]: 13 µM
- IC50 (rHDAC1 [9]; [12]): 0.22 µM
- IC50^6/1 (ratio IC50 HDAC6/IC50 HDAC1) (rHDAC1 [9]; [12]): > 230
- IC50 [10, 12]: > 50 µM

SMILES: COc1ccc(CC(=NO)C(=O)NCCSSCCNC(=O)C(Cc2ccc(OC)c(Br)c2)=NO)cc1Br [disulfide of 8]
- IC50 [7, 12]: 4.1 µM
- IC50 [8, 12]: 0.63 µM
- IC50 [11, 12]: 2.2 µM
- IC50 (rHDAC1 [9]; [12]): 0.043 µM
- IC50^6/1 (ratio IC50 HDAC6/IC50 HDAC1) (rHDAC1 [9]; [12]): 46
- IC50 [10, 12]: 2 µM

SMILES: COc1ccc(CC(=O)C(=O)NCCSSCCNC(=O)C(=O)Cc2ccc(OC)c(Br)c2)cc1Br [disulfide of 9]
- IC50 [7, 12]: 10 µM
- IC50 [8, 12]: 3.9 µM
- IC50 [11, 12]: 4.1 µM
- IC50 (rHDAC1 [9]; [12]): 9 µM
- IC50^6/1 (ratio IC50 HDAC6/IC50 HDAC1) (rHDAC1 [9]; [12]): 0.9
- IC50 [10, 12]: 8 µM

SMILES: CON=C(Cc1ccc(OC)c(Br)c1)C(=O)NCCS [thiol of 7]
- IC50 [7, 13]: 5.1 µM
- IC50 [8, 13]: 12 µM
- IC50 [11, 13]: 10 µM
- IC50 (rHDAC1 [9]; [13]): 0.015 µM
- IC50^6/1 (ratio IC50 HDAC6/IC50 HDAC1) (rHDAC1 [9]; [13]): 180
- IC50 [10, 13]: 2.7 µM

SMILES: COc1ccc(CC(=NO)C(=O)NCCS)cc1Br [thiol of 8]
- IC50 [7, 13]: 0.16 µM
- IC50 [8, 13]: 0.61 µM
- IC50 [11, 13]: 1.1 µM
- IC50 (rHDAC1 [9]; [13]): 0.002 µM
- IC50^6/1 (ratio IC50 HDAC6/IC50 HDAC1) (rHDAC1 [9]; [13]): 1772
- IC50 [10, 13]: 3.2 µM

SMILES: COc1ccc(CC(=O)C(=O)NCCS)cc1Br [thiol of 9]
- IC50 [7, 13]: 11 µM
- IC50 [8, 13]: 3.4 µM
- IC50 [11, 13]: 14 µM
- IC50 (rHDAC1 [9]; [13]): 1.1 µM
- IC50^6/1 (ratio IC50 HDAC6/IC50 HDAC1) (rHDAC1 [9]; [13]): 0.22
- IC50 [10, 13]: 0.25 µM
